Laboratory results published in the NIST ThermoML archive (doi:10.1021/acs.jced.6b00178).

Experiment: xn = mol fraction of the nth substance listed
Settings: 100 kPa, Liquid; for viscosity: Concentric cylinders viscometry; for mass density: Vibrating tube method

CCCCn1cc[n+](C)c1.N#CN=C=[N-] [1-butyl-3-methylimidazolium dicyanamide] + CCCC[n+]1ccn(C)c1.O=S(=O)([N-]S(=O)(=O)C(F)(F)F)C(F)(F)F
Settings	mass density, x2 = 0 [kg/m3]	mass density, x2 = 0.251 [kg/m3]	mass density, x2 = 0.457 [kg/m3]	mass density, x2 = 0.749 [kg/m3]	viscosity, x2 = 0 [mPa·s]	viscosity, x2 = 0.251 [mPa·s]	viscosity, x2 = 0.457 [mPa·s]	viscosity, x2 = 0.749 [mPa·s]
283.15 K	1070	1194.3	1280.8	1381.8	58.35	72.33	82.5	95.81
288.15 K	1066.7	1190.5	1276.6	1377.2	45.91	56.47	64.11	73.99
293.15 K	1063.4	1186.7	1272.5	1372.7	36.83	44.98	50.83	58.31
298.15 K	1060.2	1183	1268.5	1368.1	30.08	36.45	41.02	46.82
303.15 K	1057	1179.3	1264.4	1363.6	24.94	30.02	33.66	38.18
308.15 K	1053.8	1175.7	1260.4	1359.2	20.98	25.08	28.01	31.61
313.15 K	1050.6	1172	1256.4	1354.7	17.86	21.22	23.6	26.5
318.15 K	1047.5	1168.4	1252.4	1350.3	15.38	18.16	20.12	22.48
323.15 K	1044.4	1164.9	1248.5	1345.9	13.38	15.7	17.33	19.27
328.15 K	1041.3	1161.3	1244.6	1341.5	11.74	13.69	15.06	16.68
333.15 K	1038.2	1157.8	1240.7	1337.2	10.38	12.05	13.27	14.56
338.15 K	1035.2	1154.3	1236.8	1332.9	9.251	10.68	11.72	12.82
343.15 K	1032.1	1150.8	1233	1328.6	8.298	9.53	10.43	11.36
348.15 K	1029.1	1147.3	1229.2	1324.3	7.488	8.56	9.335	10.14
353.15 K	1026.1	1143.8	1225.4	1320	6.794	7.728	8.408	9.098
358.15 K	1023.2	1140.4	1221.6	1315.8	6.196	7.016	7.615	8.211
363.15 K	1020.3	1137	1217.9	1311.6	5.677	6.403	6.932	7.449
